From patent US11236069B2, “KIF18A inhibitors” (AMGEN INC., priority 2018, dated 2022)

Molecular target: Recombinant human KIF18A (1-467 His-tagged) protein (Homo sapiens (Human), UniProt Q8NI77)
Experiment: KIF18A Enzyme Assay: microtubule-stimulated ATPase activity (ADP-Glo)
Conditions: read-out: KIF18A ATPase IC50; 30 nM KIF18A, 30 μg/mL pig microtubules, ATP at Km 75 μM, ADP-Glo luminescence
Text: KIF18A Enzyme Assay: Microtubule-stimulated ATPase activity assay is used to measure KIF18A enzyme activity after treatment with compound. Compounds were 2-fold serially diluted in DMSO (Sigma Inc) over 22-point concentration range. […] The assay measures ADP formed from the ATPase reaction.

Sequence of Recombinant human KIF18A (1-467 His-tagged) protein (Q8NI77 1-467): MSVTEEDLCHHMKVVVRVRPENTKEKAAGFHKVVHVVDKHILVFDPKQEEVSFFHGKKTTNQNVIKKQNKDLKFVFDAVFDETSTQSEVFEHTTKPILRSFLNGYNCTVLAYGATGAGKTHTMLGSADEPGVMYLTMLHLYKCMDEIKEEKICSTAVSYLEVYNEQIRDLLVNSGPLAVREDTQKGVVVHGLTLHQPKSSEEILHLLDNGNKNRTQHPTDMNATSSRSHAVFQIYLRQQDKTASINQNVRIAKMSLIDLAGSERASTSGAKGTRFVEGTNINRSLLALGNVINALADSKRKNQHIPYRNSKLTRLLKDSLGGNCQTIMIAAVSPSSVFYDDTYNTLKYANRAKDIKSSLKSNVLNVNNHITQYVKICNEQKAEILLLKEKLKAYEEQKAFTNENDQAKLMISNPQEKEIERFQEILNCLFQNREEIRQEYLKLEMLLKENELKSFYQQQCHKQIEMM
Sequence of Recombinant human KIF18A (1-467 His-tagged) protein (P02550 whole entry partner): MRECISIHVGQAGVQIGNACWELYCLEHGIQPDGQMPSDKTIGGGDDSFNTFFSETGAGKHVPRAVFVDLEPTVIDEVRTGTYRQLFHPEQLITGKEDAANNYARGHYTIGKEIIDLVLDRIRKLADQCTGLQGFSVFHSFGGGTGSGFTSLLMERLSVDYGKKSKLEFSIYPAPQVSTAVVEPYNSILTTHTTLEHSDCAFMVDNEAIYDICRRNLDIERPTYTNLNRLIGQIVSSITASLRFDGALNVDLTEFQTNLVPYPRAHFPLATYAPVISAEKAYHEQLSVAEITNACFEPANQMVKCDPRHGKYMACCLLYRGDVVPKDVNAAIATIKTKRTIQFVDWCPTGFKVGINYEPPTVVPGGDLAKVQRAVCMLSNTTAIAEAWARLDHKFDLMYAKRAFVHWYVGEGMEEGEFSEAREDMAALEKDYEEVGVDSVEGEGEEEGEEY
Sequence of Recombinant human KIF18A (1-467 His-tagged) protein (P02554 whole entry partner): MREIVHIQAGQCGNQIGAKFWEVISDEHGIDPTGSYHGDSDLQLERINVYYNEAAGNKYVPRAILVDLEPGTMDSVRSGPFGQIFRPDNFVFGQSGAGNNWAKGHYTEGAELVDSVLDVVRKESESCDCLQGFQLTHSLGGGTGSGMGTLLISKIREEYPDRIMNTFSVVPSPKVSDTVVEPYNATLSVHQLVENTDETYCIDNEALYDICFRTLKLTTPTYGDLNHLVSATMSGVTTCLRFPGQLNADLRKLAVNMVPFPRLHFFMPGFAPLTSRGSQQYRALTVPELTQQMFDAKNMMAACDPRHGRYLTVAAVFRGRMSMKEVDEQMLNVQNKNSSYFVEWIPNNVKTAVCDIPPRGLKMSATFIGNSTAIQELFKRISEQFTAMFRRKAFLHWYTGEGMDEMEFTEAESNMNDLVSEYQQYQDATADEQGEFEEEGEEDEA

Row | SMILES | IC50
1 | Cc1cc(NC(=O)c2ccc(NS(=O)(=O)C3(C)CC3)cc2N2CCC3(CC2)CC3)nc(N2CCC(F)(F)CC2)n1 [Example 2-8, N-(2-(4,4-Difluoropiperidin-1-yl)-6-methylpyrimidin-4-yl)-4-((1-methylcyclopropan)-1-sulfonamido)-2-(6-azaspiro[2.5]octan-6-yl)benzamide] | 713 nM
2 | Cc1cc(NC(=O)c2ccc(NS(=O)(=O)C(C)(C)C)cc2N2CCC3(CC2)CC3)nc(N2CC(F)(F)C2)n1 [Example 11-83, N-(2-(3,3-Difluoroazetidin-1-yl)-6-methylpyrimidin-4-yl)-4-((1,1-dimethylethyl)sulfonamido)-2-(6-azaspiro[2.5]octan-6-yl)benzamide] | 98 nM
3 | C[C@@H](CO)S(=O)(=O)Nc1ccc(C(=O)Nc2ccnc(N3CCC(F)(F)CC3)n2)c(N2CCC3(CC2)CC3)c1 [Example 6-26-1, (S)-N-(2-(4,4-Difluoropiperidin-1-yl)pyrimidin-4-yl)-4-((2-hydroxy-1-methylethyl)sulfonamido)-2-(6-azaspiro[2.5]octan-6-yl)benzamide] | 31 nM
4 | Cc1cc(NC(=O)c2ccc(NS(=O)(=O)C3CC3)cc2N2CCC3(CC2)CC3)nc(N2CC(F)(F)C2)n1 [Example 11-22, 4-(Cyclopropanesulfonamido)-N-(2-(3,3-difluoroazetidin-1-yl)-6-methylpyrimidin-4-yl)-2-(6-azaspiro[2.5]octan-6-yl)benzamide] | 788 nM
5 | Cc1cc(NC(=O)c2ccc(NS(=O)(=O)CCO)cc2N2CCC3(CC2)CC3)nc(N2CCC(C)(O)CC2)n1 [Example 11-38, N-(2-(4-Hydroxy-4-methylpiperidin-1-yl)-6-methylpyrimidin-4-yl)-4-((2-hydroxyethyl)sulfonamido)-2-(6-azaspiro[2.5]octan-6-yl)benzamide] | 65 nM
6 | Cc1cc(NC(=O)c2ccc(S(=O)(=O)N[C@@H](C)CO)cc2N2CCC3(CC2)CC3)nc(N2CCC(F)(F)CC2)n1 [Example 17-7, (S)-N-(2-(4,4-Difluoropiperidin-1-yl)-6-methylpyrimidin-4-yl)-4-(N-(1-hydroxypropan-2-yl)sulfamoyl)-2-(6-azaspiro[2.5]octan-6-yl)benzamide] | 147 nM
7 | Cc1cc(NC(=O)c2cc(F)c(NS(=O)(=O)[C@@H](C)CO)cc2N2CCC3(CC2)CC3)nc(N2CCC(F)(F)CC2)n1 (single isomer, unassigned) [Example 8-2] | 73 nM
8 | Cc1cc(NC(=O)c2ccc(NS(C)(=O)=O)cc2N2CCC3(CC2)CC3)nc(N2CCO[C@H](C)C2)n1 [Example 6-5, (R)-N-(6-Methyl-2-(2-methylmorpholino)pyrimidin-4-yl)-4-(methylsulfonamido)-2-(6-azaspiro[2.5]octan-6-yl)benzamide] | 120 nM
9 | O=C(Nc1ccnc(N2CC(F)(F)C2)n1)c1ccc(NS(=O)(=O)CCO)cc1N1CCC2(CC1)CC2 [Example 11-7, N-(2-(3,3-Difluoroazetidin-1-yl)pyrimidin-4-yl)-4-((2-hydroxyethyl)sulfonamido)-2-(6-azaspiro[2.5]octan-6-yl)benzamide] | 23 nM
10 | Cc1cc(NC(=O)c2ccc(NS(=O)(=O)CCO)cc2N2CCC3(CC2)CC3)nc(O[C@@H]2CCOC2)n1 [Example 11-80, (R)-4-((2-Hydroxyethyl)sulfonamido)-N-(6-methyl-2-((tetrahydrofuran-3-yl)oxy)pyrimidin-4-yl)-2-(6-azaspiro[2.5]octan-6-yl)benzamide] | 117 nM
11 | C[C@@H]1CN(c2nccc(NC(=O)c3ccc(S(C)(=O)=O)cc3N3CCC4(CC3)CC4)n2)CCO1 [Example 2-7, (R)-N-(2-(2-Methylmorpholino)pyrimidin-4-yl)-4-(methylsulfonyl)-2-(6-azaspiro[2.5]octan-6-yl)benzamide] | 240 nM
12 | Cc1cc(NC(=O)c2ccc(NS(=O)(=O)CF)cc2N2CCC3(CC2)CC3)nc(N2CCC(F)CC2)n1 [Example 6-1, 4-((Fluoromethyl)sulfonamido)-N-(2-(4-fluoropiperidin-1-yl)-6-methylpyrimidin-4-yl)-2-(6-azaspiro[2.5]octan-6-yl)benzamide] | 62 nM
13 | Cc1cc(NC(=O)c2ccc(NS(=O)(=O)CCO)cc2N2CCC3(CC2)CC3)nc(N2CC(OC(F)F)C2)n1 [Example 11-10, N-(2-(3-(Difluoromethoxy)azetidin-1-yl)-6-methylpyrimidin-4-yl)-4-((2-hydroxyethyl)sulfonamido)-2-(6-azaspiro[2.5]octan-6-yl)benzamide] | 192 nM
14 | C[C@H](CO)S(=O)(=O)Nc1ccc(C(=O)Nc2ccnc(N3CCC(F)(F)CC3)n2)c(N2CCC3(CC2)CC3)c1 [Example 6-26-2, (R)-N-(2-(4,4-Difluoropiperidin-1-yl)pyrimidin-4-yl)-4-((2-hydroxy-1-methylethyl)sulfonamido)-2-(6-azaspiro[2.5]octan-6-yl)benzamide] | 21 nM
15 | Cc1cc(NC(=O)c2ccc(NS(=O)(=O)CC3CC3)cc2N2CCC3(CC2)CC3)nc(N2CCC(F)(F)CC2)n1 [Example 6-18, 4-((Cyclopropylmethyl)sulfon-amido)-N-(2-(4,4-difluoropiperidin-1-yl)-6-methylpyrimidin-4-yl)-2-(6-azaspiro[2.5]octan-6-yl)benzamide] | 85 nM
16 | Cc1cc(NC(=O)c2ccc([S@@](=N)(=O)C3CC3)cc2N2CCC3(CC2)CC3)nc(N2CCC(F)(F)CC2)n1 (single isomer, unassigned) [Example 18-2, 2-(6-Azaspiro[2.5]octan-6-yl)-4-(S-cyclopropylsulfonimidoyl)-N-(2-(4,4-difluoro-1-piperidinyl)-6-methyl-4-pyrimidinyl)benzamide] | 57 nM
17 | Cc1cc(NC(=O)c2ccc(NS(=O)(=O)CCO)cc2N2CCC3(CC2)CC3)nc(N2CCC(C)(F)CC2)n1 [Example 11-52, N-(2-(4-Fluoro-4-methylpiperidin-1-yl)-6-methylpyrimidin-4-yl)-4-((2-hydroxyethyl)sulfonamido)-2-(6-azaspiro[2.5]octan-6-yl)benzamide] | 63 nM
18 | Cc1cc(NC(=O)c2ccc(NS(=O)(=O)[C@H](CO)CF)cc2N2CCC3(CC2)CC3)nc(N2CCC(F)(F)CC2)n1 [Example 16-1, (R)-N-(2-(4,4-Difluoropiperidin-1-yl)-6-methylpyrimidin-4-yl)-4-((2-fluoro-1-(hydroxymethyl)ethyl)sulfonamido)-2-(6-azaspiro[2.5]octan-6-yl)benzamide] | 89 nM
19 | Cc1cc(NC(=O)c2ccc(NS(=O)(=O)C3CCC3)cc2N2CCC3(CC2)CC3)nc(N2CC(F)(F)C2)n1 [Example 6-13, 4-(Cyclobutanesulfonamido)-N-(2-(3,3-difluoroazetidin-1-yl)-6-methylpyrimidin-4-yl)-2-(6-azaspiro[2.5]octan-6-yl)benzamide] | 52 nM
20 | Cc1cc(NC(=O)c2ccc(NS(=O)(=O)C[C@H](C)O)cc2N2CCC3(CC2)CC3)nc(OCCC(F)(F)F)n1 [Example 6-28-2, (S)-4-((2-Hydroxypropyl)sulfonamido)-N-(6-methyl-2-(3,3,3-trifluoropropoxy)pyrimidin-4-yl)-2-(6-azaspiro[2.5]octan-6-yl)benzamide] | 71 nM
21 | Cc1cc(NC(=O)c2cc(F)c(NS(=O)(=O)CCO)cc2N2CCC3(CC2)CC3)nc(N2CCO[C@H](C)C2)n1 [Example 9-2, (R)-5-Fluoro-4-((2-hydroxyethyl)sulfonamido)-N-(6-methyl-2-(2-methylmorpholino)pyrimidin-4-yl)-2-(6-azaspiro[2.5]octan-6-yl)benzamide] | 158 nM
